Data as given in patent US11447471B2, “α,β-unsaturated amide compound” (KYOWA KIRIN CO., LTD., priority 2017, dated 2022).

Assays:
Format in all cases: cell-based
[1] = tested on: NCI-H322 cells; experiment: Cell growth inhibitory effect on human lung cancer cell line (cell counting kit 8, 6 days); settings: 144 h; human lung cancer cell line NCI-H322, 6 days incubation
From the text: (§1) NCI-H226 cells, a human mesothelioma cell line (ATCC, CRL-5826), NCI-H322 cells, a human lung cancer cell line (the European Collection of Authenticated Cell Cultures, 95111734), OUTOKO cells, a human ovarian cancer cell line (JCRB cell bank, KRB1048) and […] were each subcultured by keeping the cell density under 80% in a RPMI1640 culture medium with 10% fetal bovine serum (FBS). NCI-H226 cells, NCI-H322 cells and SSP-25 cells were each suspended in the RPMI1640 culture medium mentioned above, and plated to a 96-well flat-bottom plate at 500 cells/well in each well, and incubated at 37° C. in an incubator with 5% CO2 for one day. After the incubation, the evaluation of cell growth inhibitory activity was started. OVTOKO cells were suspended in the RPMI1640 culture medium mentioned above, and plated to a 96-well flat-bottom plate at 250 cells/well in each well, and incubated it at 37° C. in an incubator with 5% CO2 for one day. After the incubation, the evaluation of the cell growth inhibitory activity was started. The next day, a test compound was serially diluted to 5 times of its final concentration in the RPM11640 culture medium mentioned above, and the diluted solution was added to each well. In this case, the final concentration of DMSO in each well was adjusted to 0.1%. After the test compound was added, cells were incubated at 37° C. in an incubator with 5% CO2 for 6 days. At the addition of the test compound and 6 days after the addition, the cell counting measurement was performed using a cell counting kit 8 (made by DOJINDO) according to a protocol equivalent to DOJINDO's recommendation. A reagent contained in the kit was added to each plate and color reaction was performed for 2 or 3 hours at 37° C. in an incubator with 5% CO2. After the reaction, an absorbance at wavelength of 450 nm was measured using a microplate reader. A growth inhibition rate was calculated according to the following formula, from which the concentration of a test compound at which cell growth was inhibited by 50% (GI50 value) was determined.

[2] = tested on: NCI-H226 cells; experiment: Cell growth inhibitory effect on human mesothelioma cell line (cell counting kit 8, 6 days); settings: NCI-H226, 144 h
From the text: as §1

[3] = tested on: HuH28 cells; experiment: Cell growth inhibitory effect on human liver cancer cell line (cell counting kit 8, 6 days); settings: 144 h; human liver cancer cell line HuH28, 6 days incubation
From the text: as §1

[4] = tested on: OVTOKO cells; experiment: Cell growth inhibitory effect on human ovarian cancer cell line (cell counting kit 8, 6 days); settings: 144 h, 6 days incubation
From the text: as §1

SMILES | GI50 [1] | GI50 [2] | GI50 [3] | GI50 [4]
C=CC(=O)NCc1ccc(Oc2ccc(C(F)(F)F)cn2)c2nc(CC)oc12 [Compound 252, N-{(2-Ethyl-4-[{5-(trifluoromethyl)pyridin-2-yl}oxy]benzo[d]oxazol-7-yl)methyl}acrylamide] | < 1000 nM | < 100 nM | < 3000 nM | 
C=CC(=O)NCc1ccc(Oc2ccc(C(F)(F)F)cc2)c2oc(C)nc12 [Compound 253, N-([2-Methyl-7-{4-(trifluoromethyl)phenoxy}benzo[d]oxazol-4-yl]methyl)acrylamide] | < 1000 nM | < 100 nM | < 3000 nM | 
C=CC(=O)NC1CC[C@@H](Oc2ccc(C(F)(F)F)cc2)c2nc(Cl)ccc21 (stereo in doubt) [Compound 82, trans-N-[2-Chloro-8-{4-(trifluoromethyl)phenoxy}-5,6,7,8-tetrahydroquinolin-5-yl]acrylamide] | < 1000 nM | < 100 nM |  | ≤ 3000 nM
C=CC(=O)NC1CC[C@H](Oc2ccc(Cl)cc2)c2nc(Cl)ccc21 (stereo in doubt) [Compound 70, cis-N-{2-Chloro-8-(4-chlorophenoxy)-5,6,7,8-tetrahydroquinolin-5-yl}acrylamide] | < 1000 nM | < 100 nM |  | ≤ 3000 nM
C=CC(=O)NCc1ccc(/C=C/c2ccc(C(F)(F)F)cc2)c2nc(C)oc12 [Compound 273, (E)-N-([2-Methyl-4-{4-(trifluoromethyl)styryl}benzo[d]oxazol-7-yl]methyl)acrylamide] |  | 100 to 1000 nM | < 3000 nM | ≤ 3000 nM
C=CC(=O)NC1CC[C@H](Oc2ccc(Cl)cc2)c2nc(OC)ccc21 (stereo in doubt) [Compound 71, cis-N-{8-(4-Chlorophenoxy)-2-methoxy-5,6,7,8-tetrahydroquinolin-5-yl}acrylamide] | < 1000 nM | < 100 nM |  | ≤ 3000 nM
C=CC(=O)NCc1ccc(S(=O)(=O)c2ccc(C(F)(F)F)cc2)c2nc(C)oc12 [Compound 271, N-{(2-Methyl-4-[{4-(trifluoromethyl)phenyl}sulfonyl]benzo[d]oxazol-7-yl)methyl}acrylamide] |  |  | < 3000 nM | ≤ 3000 nM
C=CC(=O)N[C@@H]1CC[C@H](Oc2ccc(C(F)(F)F)cc2)c2nc(C)ccc21 (relative stereo) [Compound 184, cis-N-[2-Methyl-8-{4-(trifluoromethyl)phenoxy}-5,6,7,8-tetrahydroquinolin-5-yl]acrylamide] | < 1000 nM | < 100 nM |  | ≤ 3000 nM
C=CC(=O)NC1COc2ccc(Oc3ccc(C(F)(F)F)cc3)cc21 (centres unmarked) [Compound 262, N-[5-{4-(Trifluoromethyl)phenoxy}-2,3-dihydrobenzofuran-3-yl]acrylamide] | < 1000 nM | < 100 nM |  | 
C=CC(=O)NC1CC[C@H](Oc2ccc(C(F)(F)F)cc2)c2nc(Cl)ccc21 (stereo in doubt) [Compound 76, cis-N-[2-Chloro-8-{4-(trifluoromethyl)phenoxy}-5,6,7,8-tetrahydroquinolin-5-yl]acrylamide] | < 1000 nM | < 100 nM |  | ≤ 3000 nM
C=CC(=O)NC1COc2c(Br)cc(Oc3ccc(C(F)(F)F)cc3)cc21 (centres unmarked) [Compound 263, N-[7-Bromo-5-{4-(trifluoromethyl)phenoxy}-2,3-dihydrobenzofuran-3-yl]acrylamide] | < 1000 nM | < 100 nM |  | 
C=CC(=O)NC1COc2cc(Oc3ccc(C(F)(F)F)cc3)ccc21 (centres unmarked) [Compound 265, N-{6-[4-(Trifluoromethyl)phenoxy]-2,3-dihydrobenzofuran-3-yl}acrylamide] | < 1000 nM | 100 to 1000 nM |  | 
C=CC(=O)NCc1ccc(OC2CCCCC2)c2nc(C)oc12 [Compound 276, N-[{4-(Cyclohexyloxy)-2-methylbenzo[d]oxazol-7-yl}methyl]acrylamide] |  | < 100 nM | < 3000 nM | ≤ 3000 nM
